These results are taken from patent US8791132B2, “Compounds and methods for treatment of hypertension” (Medivation Technologies, Inc., priority 2011, dated 2014).

In assay [1] the target is T1, human recombinant adrenergic α1D receptor (Homo sapiens, UniProt P25100).
T1 construct: expressed in transfected cells; host or cells: HEK-293
T1 sequence (P25100 1-572): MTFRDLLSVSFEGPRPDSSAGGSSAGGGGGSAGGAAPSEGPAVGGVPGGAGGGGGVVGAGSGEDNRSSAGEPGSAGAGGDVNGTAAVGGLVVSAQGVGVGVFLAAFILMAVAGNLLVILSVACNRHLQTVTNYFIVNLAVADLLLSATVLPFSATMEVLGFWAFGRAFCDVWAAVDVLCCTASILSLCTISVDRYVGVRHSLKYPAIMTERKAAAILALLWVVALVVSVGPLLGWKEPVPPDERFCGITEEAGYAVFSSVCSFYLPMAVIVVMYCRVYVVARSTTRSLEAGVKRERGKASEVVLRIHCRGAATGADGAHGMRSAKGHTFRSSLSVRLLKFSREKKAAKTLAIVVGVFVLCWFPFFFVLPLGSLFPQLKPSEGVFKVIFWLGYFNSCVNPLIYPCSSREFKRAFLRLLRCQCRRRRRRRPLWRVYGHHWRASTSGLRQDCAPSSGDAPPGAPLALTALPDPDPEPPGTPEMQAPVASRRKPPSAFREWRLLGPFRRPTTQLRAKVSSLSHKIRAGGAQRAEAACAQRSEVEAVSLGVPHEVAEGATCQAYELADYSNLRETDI
Briefly: Radioligand binding, adrenergic α1D ([3H]Prazosin). Particulars: [3H]Prazosin, repeat datapoints each shown. As for the experimental part:
Compounds were incubated with 0.6 nM [3H]Prazosin for 60 min at 25° C. Non-specific binding was estimated in the presence of 10 μM phentolamine. Receptor proteins were filtered and washed, the filters were then counted to determine [3H]Prazosin specifically bound. […] Biochemical assay results are presented as the percent inhibition of specific binding in Table B1.

The target of assay [2] is T2, human recombinant adrenergic α2A receptor (Homo sapiens, UniProt P08913).
T2 construct: expressed in transfected cells; host or cells: insect Sf9 cells
T2 sequence (P08913 1-465): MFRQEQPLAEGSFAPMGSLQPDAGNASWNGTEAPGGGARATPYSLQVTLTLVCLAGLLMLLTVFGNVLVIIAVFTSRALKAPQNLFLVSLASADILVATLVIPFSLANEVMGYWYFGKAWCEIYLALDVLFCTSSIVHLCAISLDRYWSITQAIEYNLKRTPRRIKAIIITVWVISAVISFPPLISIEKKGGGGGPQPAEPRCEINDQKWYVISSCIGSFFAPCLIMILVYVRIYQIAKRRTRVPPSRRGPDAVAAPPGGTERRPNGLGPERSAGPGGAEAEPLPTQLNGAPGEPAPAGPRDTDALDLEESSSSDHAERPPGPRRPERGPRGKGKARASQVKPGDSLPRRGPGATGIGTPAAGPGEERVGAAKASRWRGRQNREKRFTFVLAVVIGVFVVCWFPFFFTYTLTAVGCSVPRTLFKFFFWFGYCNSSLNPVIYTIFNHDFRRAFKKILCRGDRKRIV
Briefly: Radioligand binding, adrenergic α2A ([3H]MK-912). To be noted: [3H]MK-912, repeat datapoints each shown. The essentials:
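Receptor expressed in Sf9 cells, in 50 mM Tris-HCl pH 7.4, 12.5 mM MgCl2, 2 mM EDTA; compounds incubated with 1 nM [3H]MK-912 for 60 min at 25 °C.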

Assay [3] concerns the target T3, rat adrenergic α1B receptor (Rattus norvegicus, UniProt P15823).
T3 construct: rat adrenergic α1B receptor obtained from Wistar Rat liver; from tissue; host or cells: Wistar rat liver
T3 sequence (P15823 1-515): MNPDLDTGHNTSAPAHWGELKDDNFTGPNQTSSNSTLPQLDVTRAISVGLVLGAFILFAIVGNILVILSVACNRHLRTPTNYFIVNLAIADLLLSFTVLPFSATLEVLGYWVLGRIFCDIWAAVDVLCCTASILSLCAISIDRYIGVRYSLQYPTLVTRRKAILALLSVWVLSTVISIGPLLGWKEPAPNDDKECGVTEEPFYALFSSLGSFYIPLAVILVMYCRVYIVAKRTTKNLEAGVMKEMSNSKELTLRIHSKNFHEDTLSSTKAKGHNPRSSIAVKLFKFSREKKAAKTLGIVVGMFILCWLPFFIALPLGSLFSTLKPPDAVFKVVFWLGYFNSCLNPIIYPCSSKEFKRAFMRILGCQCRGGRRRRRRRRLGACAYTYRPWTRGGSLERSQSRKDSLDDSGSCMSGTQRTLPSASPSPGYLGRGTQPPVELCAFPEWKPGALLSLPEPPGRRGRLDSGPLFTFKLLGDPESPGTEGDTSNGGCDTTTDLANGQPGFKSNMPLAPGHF
Briefly: Radioligand binding, adrenergic α1B ([3H]Prazosin). Particulars: [3H]Prazosin, repeat datapoints each shown. The procedure, abridged:
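Rat α1B receptor from Wistar rat liver was incubated with 0.25 nM [3H]prazosin for 60 min at 25 °C in 50 mM Tris-HCl, pH 7.4, 0.5 mM EDTA. Non-specific binding was defined with 10 μM phentolamine. Bound radioligand was measured by filtration and counting, reported as percent inhibition of specific binding.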

Structures are written as SMILES.

A word on the inhibition: it is the share of the control response that was lost under treatment. For the molecule `COc1ccc(/C(C)=C/n2c3c(c4cc(C)ccc42)CCN(C)CC3)cc1F` [compound 241], in assay [1] (compound at 0.1 μM, 0.1 µM), the “Percentage inhibition of ligand binding, Adrenergic α1D (0.1 μM)” value is 49%. For the same molecule, the inhibition at 0.1 µM came to 47% in assay [1] (read-out: Percentage inhibition of ligand binding, Adrenergic α1D (0.1 μM), compound at 0.1 μM); 75% in assay [2] (read-out: Percentage inhibition of ligand binding, Adrenergic α2A (0.1 μM), compound at 0.1 μM); 81% in assay [3] (read-out: Percentage inhibition of ligand binding, Adrenergic α1B (0.1 μM), compound at 0.1 μM). Besides, the “Percentage inhibition of ligand binding, Adrenergic α2A (0.1 μM)” value in assay [2] (compound at 0.1 μM, 0.1 µM) stood at 78%. The “Percentage inhibition of ligand binding, Adrenergic α1B (0.1 μM)” value in assay [3] (compound at 0.1 μM, 0.1 µM) is 82%.
